{
  "source": "patent US20180289655A1",
  "about": "“Methods and Compositions for the Intravenous Administration of Fumarates for the Treatment of Neurological Diseases” (Biogen MA Inc., priority 2015, published 2018)",
  "key": {"[1]": {"assay": "DMF IV formulation development: solubility in solvents and excipient vehicles", "format": "physicochemical", "procedure": "2. […] For example, 2% DMSO (0.1 ml/kg/5 ml/kg*100%=2.0%), 10% PEG400 (1 ml/kg/5 ml/kg*50%=10%) and 20% Captisol (sulfobutyl ether cyclodextrin) (5 ml/kg/5 ml/kg*20%=20%) could be used for rodent IV formulation assumed the dosage of 5 ml/kg. 3. […] The studies were performed by making the PEG400 stock solution and diluting the solution with different vehicles (Table 16). […] 4."}, "blood cell populations": {"tested_on": "blood cell populations", "assay": "Complete blood count (CBC) with differential after IV dosing", "format": "in vivo, C57BL/6 mice", "procedure": "Whole blood samples (250 μL) were collected in EDTA tubes at indicated time points after dosing, and were maintained at 4° C. until analysis for CBC with differential at Charles River Laboratories (analyzed within 24-36 hours from time of collection).\nStatistical analyses on blood cell fractions were not completed due to the overall variability and low number of replicates for the samples in this pilot study.\nA CBC with differential panel was performed at 10 minutes post-last dose via facial vein bleeding, and at 2 hours after the last dose, pharmacodynamic Nrf2 transcriptional responses were analyzed in tissues from the same animals. Histopathology was also performed on regions of the tail in a pilot toxicology study."}, "[2]": {"assay": "MMF exposure in plasma and tissues after DMF PO or IV once daily for 5 days (LC-MS/MS)", "format": "in vivo, Sprague-Dawley rats", "procedure": "On Day 5 of the study 3 time points were evaluated: 10 minutes, 2 hours, and 6 hours after dosing, as illustrated in the timeline. At each time point, 5 animals from each group were sacrificed. At the 2 and 6 hour time points, the tissue samples from groups E, F, I, and J from each animal were split, with half of the tissue being processed for MMF exposure, and half processed for qRT-PCR. Note vehicle groups (C, D, G, and H) were not processed for MMF measurement and only used for qRT-PCR.\nAt 10 minutes, 2 and 6 hours, plasma and tissues (forebrain, cerebellum, jejunum, kidney and spleen) from cohorts of animals (Groups A, B, E, F, I, J) were collected to measure the concentration of MMF in the sample. MMF was quantitated using a non-GLP, but validated LC/MS/MS assay. Statistical comparisons were performed using the non-parametric Mann-Whitney U test.\nAs mentioned previously, Sprague-Dawley rats were sacrificed and terminal plasma and tissue samples were collected 10 minutes, 2 and 6 hours after dosing and MMF exposure in plasma, brain, cerebellum, jejunum and kidney was determined as follows. Tissues were snap frozen on dry ice after dissection. Immediately prior to blood collection, 4 μL of 250 mg/mL stock mixture of sodium fluoride (NaF) in water was added to each 100 μL of blood collected in a lithium heparin tube. The stock NaF mixture was prepared on the day of use and kept as a homogenous suspension through continuous stirring on a stir plate. Whole blood was added to the tube, and then samples were inverted several times and stored on wet ice (2° C. to 8° C.). All samples were centrifuged within 30 minutes of collection at 4° C. for 15 minutes at 1500×g (4200 RPM). Plasma was then transferred into pre-chilled tubes, immediately frozen on dry ice and maintained frozen (≤−80° C.) until analysis.\nAliquots (50 μL) of either plasma or tissue homogenate samples were extracted by protein precipitation with acetonitrile containing methylethyl fumarate or −4C13-MMF as the internal standard. For tissue samples, aliquots of homogenization solution (‘blank’ plasma with 12.5 mg/mL of NaF) were added to the tissue samples. The tissue samples were homogenized at 6.5 m/s for 60 seconds on a Fast Prep Tissue Homogenizer prior to protein precipitation. Concentrations of MMF in plasma, forebrain, cerebellum, jejunum, spleen and kidney samples were determined using qualified LC-MS/MS assays in the respective matrices. Data collection and integration was accomplished using an API 5500 triple quadrupole mass spectrometer with a turbo ion spray interface (AB Sciex, Foster City, Calif.), and Analyst software (version 1.6.1). The peak area ratios of MMF relative to its internal standard were used to construct a standard curve using a quadratic regression with a 1/x^2 weighting. The lower limit of quantitation (LLOQ) was 10 ng/mL for all four assays. The performances of the assays were monitored by the precision and accuracy of the standards and quality control samples."}, "[3]": {"settings": "Study 3, DMF IV 30 mg/kg once daily x5"}, "[4]": {"settings": "Study 3, DMF IV 30 mg/kg once daily x5, vs vehicle"}},
  "note": "“Also recorded” adds a separate entry of the source. Structures can show the parent of a compound that is named as a salt.",
  "data": [
    {"smiles": "COC(=O)/C=C/C(=O)OC", "note": "[DMF, dimethyl fumarate]", "values": [
      {"measurement": "Solution or precipitated", "setting": "[1]; 5 mg/ml DMF in 15% HPbCD, heating then cooling to room temperature, final pH 3.51", "result": "solution"},
      {"measurement": "Solution or precipitated", "setting": "[1]; 5 mg/ml DMF in 20% Captisol, heating then cooling to room temperature, final pH 4.71", "result": "clear solution could be achieved"},
      {"measurement": "Suitable for 5 mg/ml dosage?", "setting": "[1]; 10% PEG400 + 0.5% HPMC", "result": "No"},
      {"measurement": "Suitable for 5 mg/ml dosage?", "setting": "[1]; 10% PEG400 + 0.5% HPMC + 0.2% SDS", "result": "No"},
      {"measurement": "Solution or precipitated", "setting": "[1]; 10% PEG400 + 0.5% HPMC + 0.2% SDS, final concentration 2.8 mg/ml", "result": "precipitated"},
      {"measurement": "Solution or precipitated", "setting": "[1]; 10% PEG400 + 0.5% HPMC, final concentration 2.8 mg/ml", "result": "precipitated"},
      {"measurement": "Suitable for 5 mg/ml dosage?", "setting": "[1]; 10% PEG400 + 1.5% Poloxamer 188", "result": "No"},
      {"measurement": "Solution or precipitated", "setting": "[1]; 10% PEG400 + 1.5% Poloxamer 188, final concentration 2.8 mg/ml", "result": "precipitated"},
      {"measurement": "Suitable for 5 mg/ml dosage?", "setting": "[1]; 10% PEG400 + 1.5% Poloxamer 237", "result": "No"},
      {"measurement": "Solution or precipitated", "setting": "[1]; 10% PEG400 + 1.5% Poloxamer 237, final concentration 2.8 mg/ml", "result": "precipitated"},
      {"measurement": "Suitable for 5 mg/ml dosage?", "setting": "[1]; 10% PEG400 + 2.0% Tween 80", "result": "No"},
      {"measurement": "Solution or precipitated", "setting": "[1]; 10% PEG400 + 2.0% Tween 80, final concentration 2.8 mg/ml", "result": "precipitated"},
      {"measurement": "Suitable for 5 mg/ml dosage?", "setting": "[1]; 10% PEG400 + 15% HPbCD", "result": "Might be"},
      {"measurement": "Solution or precipitated", "setting": "[1]; 10% PEG400 + 15% HPbCD, final concentration 2.8 mg/ml", "result": "generated clear solutions at 2.8 mg/ml; also recorded: Clear solution"},
      {"measurement": "Suitable for 5 mg/ml dosage?", "setting": "[1]; 10% PEG400 + 20% Captisol", "result": "Might be"},
      {"measurement": "Solution or precipitated", "setting": "[1]; 10% PEG400 + 20% Captisol, final concentration 2.8 mg/ml", "result": "generated clear solutions at 2.8 mg/ml; also recorded: Clear solution"},
      {"measurement": "Suitable for 5 mg/ml dosage?", "setting": "[1]; 10% PEG400 + D5W", "result": "No"},
      {"measurement": "Suitable for 5 mg/ml dosage?", "setting": "[1]; 10% PEG400 + D5W phosphate buffer (pH 6.0)", "result": "No"},
      {"measurement": "Solution or precipitated", "setting": "[1]; 10% PEG400 + D5W phosphate buffer (pH 6.0), final concentration 2.8 mg/ml", "result": "precipitated"},
      {"measurement": "Solution or precipitated", "setting": "[1]; 10% PEG400 + D5W, final concentration 2.8 mg/ml", "result": "precipitated"},
      {"measurement": "Suitable for 5 mg/ml dosage?", "setting": "[1]; 10% PEG400 + H2O", "result": "No"},
      {"measurement": "Solution or precipitated", "setting": "[1]; 10% PEG400 + H2O, final concentration 2.8 mg/ml", "result": "precipitated"},
      {"measurement": "Suitable for 5 mg/ml dosage?", "setting": "[1]; 10% PEG400 + Saline (pH 7)", "result": "No"},
      {"measurement": "Solution or precipitated", "setting": "[1]; 10% PEG400 + Saline (pH 7), final concentration 2.8 mg/ml", "result": "precipitated"},
      {"measurement": "Suitable for 5 mg/ml dosage?", "setting": "[1]; 20% Captisol, final pH 4.71", "result": "Might be, 5 mg/ml solution could be"},
      {"measurement": "solubility", "setting": "[1]; DMSO (pure solvent), organic solvent or mixture", "result": "23 to 29", "unit": "mg/mL"},
      {"measurement": "solubility", "setting": "[1]; PEG400, organic solvent or mixture", "result": "38 to 46", "unit": "mg/mL"},
      {"measurement": "solubility", "setting": "[1]; ethanol, organic solvent or mixture", "result": "< 20", "unit": "mg/mL"},
      {"measurement": "solubility", "setting": "[1]; organic solvent or mixture, propylene Glycol (PG)", "result": "< 20", "unit": "mg/mL"},
      {"measurement": "Reduction in white blood cell counts (neutrophils, lymphocytes, monocytes, eosinophils, basophils)", "setting": "blood cell populations; Study 2, single IV dose DMF 30 mg/kg or MMF 27.08 mg/kg, 2-hour time point", "result": "did not specifically coincide with DMF or MMF treatment"},
      {"measurement": "Effect on red blood cells, hemoglobin, hematocrit, mean corpuscular volume, platelets", "setting": "blood cell populations; Study 2, single IV dose DMF 30 mg/kg or MMF 27.08 mg/kg, 10 minutes, 2 and 6 hours", "result": "no effect on red blood cells, hemoglobin, hematocrit, mean corpuscular volume, or platelets"},
      {"measurement": "Effect on red blood cells, hemoglobin, hematocrit, mean corpuscular volume, platelets", "setting": "blood cell populations; [3]", "result": "no effects on red blood cells, hemoglobin, hematocrit, mean corpuscular volume, or platelets"},
      {"measurement": "White blood cells", "setting": "blood cell populations; [3]", "result": "general reduction in white blood cells"},
      {"measurement": "Decrease in lymphocytes", "setting": "blood cell populations; [4]", "result": 38, "unit": "%"},
      {"measurement": "Decrease in monocytes", "setting": "blood cell populations; [4]", "result": 60, "unit": "%"},
      {"measurement": "MMF level in any tissue", "setting": "[2]; 6 hours after IV or PO DMF dosing", "result": "no detectable MMF in any tissue"},
      {"measurement": "MMF level in forebrain or cerebellum", "setting": "[2]; 6 hours after dosing, PO or IV", "result": "undetectable"},
      {"measurement": "MMF level in any tissue", "setting": "[2]; DMF IV 30 mg/kg, 2 hours", "result": "no MMF was detectable in any tissue"},
      {"measurement": "MMF level in brain", "setting": "[2]; DMF IV 30 mg/kg, 2 hours", "result": "below the level of quantitation"},
      {"measurement": "MMF level in plasma", "setting": "[2]; DMF IV 30 mg/kg, 6 hours", "result": "not detectable"},
      {"measurement": "MMF levels in kidney, jejunum and spleen", "setting": "[2]; DMF PO 100 mg/kg, 2 hours", "result": "markedly decreased, but detectable"},
      {"measurement": "MMF levels in jejunum, kidney and spleen, PO versus IV", "setting": "[2]; PO 100 mg/kg vs IV 30 mg/kg, 10 minutes", "result": "these differences were not significant"}
    ]}
  ]
}
